# ChEMBL document CHEMBL1201862, “PubChem BioAssay data set” (2004)
#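 Dose response: 5 concentrations. Exposure: 48 h. Format: 96-well plates. Endpoint: linear interpolation; highest concentration if not reached. At the GI50, growth is halved.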 Activity calls are given as the source filed them. No stated cut-off is given here; in the data, active = GI50 up to about 1.1 µM and inactive = higher.
# How the values were obtained:
# Assay in all cases: DTP human tumour cell line panel, 48 h
# 786-0 = test system: 786-0
# A549 = test system: A549
# ACHN = test system: ACHN
# CAKI-1 = test system: CAKI-1
# COLO 205 = test system: COLO 205
# DLD-1 = test system: DLD-1
# DMS-273 = test system: DMS-273
# EKVX = test system: EKVX
# HCC 2998 = test system: HCC 2998
# HCT-116 = test system: HCT-116
# HL-60 = test system: HL-60
# HOP-18 = test system: HOP-18
# HOP-62 = test system: HOP-62
# HOP-92 = test system: HOP-92
# HT-29 = test system: HT-29
# KM-20L2 = test system: KM-20L2
# KM12 = test system: KM12
# LOX IMVI = test system: LOX IMVI
# LXFL 529 = test system: LXFL 529
# M14 = test system: M14
# M19-MEL = test system: M19-MEL
# Malme-3M = test system: Malme-3M
# NCI-H226 = test system: NCI-H226
# NCI-H23 = test system: NCI-H23
# NCI-H460 = test system: NCI-H460
# NCI-H522 = test system: NCI-H522
# OVCAR-3 = test system: OVCAR-3
# OVCAR-4 = test system: OVCAR-4
# OVCAR-5 = test system: OVCAR-5
# OVCAR-8 = test system: OVCAR-8
# RXF 393 = test system: RXF 393
# SF-268 = test system: SF-268
# SF-295 = test system: SF-295
# SF-539 = test system: SF-539
# SK-MEL-28 = test system: SK-MEL-28
# SK-MEL-2 = test system: SK-MEL-2
# SN12C = test system: SN12C
# SNB-19 = test system: SNB-19
# SNB-75 = test system: SNB-75
# SNB-78 = test system: SNB-78
# SW-620 = test system: SW-620
# TK-10 = test system: TK-10
# U-251 = test system: U-251
# UACC-257 = test system: UACC-257
# UO-31 = test system: UO-31
# XF498 = test system: XF498
# A498 = test system: A498
# CCRF-CEM = test system: CCRF-CEM
# DMS-114 = test system: DMS-114
# HCT-15 = test system: HCT-15
# IGROV-1 = test system: IGROV-1
# K562 = test system: K562
# MOLT-4 = test system: MOLT-4
# RPMI-8226 = test system: RPMI-8226
# SK-MEL-5 = test system: SK-MEL-5
# SK-OV-3 = test system: SK-OV-3
# SR = test system: SR
# UACC-62 = test system: UACC-62
smiles,measurement,setting,value
CCOC(=O)CCc1c(C)c2c(OC)cc(OC)cc2oc1=O,GI50,786-0,34.1 µM (inactive)
same,GI50,A549,> 100 µM (inactive)
same,GI50,ACHN,42.4 µM (inactive)
same,GI50,CAKI-1,72.3 µM (inactive)
same,GI50,COLO 205,> 100 µM (inactive)
same,GI50,DLD-1,91.6 µM (inactive)
same,GI50,DMS-273,41.8 µM (inactive)
same,GI50,EKVX,54.7 µM (inactive)
same,GI50,HCC 2998,> 100 µM (inactive)
same,GI50,HCT-116,> 100 µM (inactive)
same,GI50,HL-60,88.3 µM (inactive)
same,GI50,HOP-18,32.1 µM (inactive)
same,GI50,HOP-62,> 100 µM (inactive)
same,GI50,HOP-92,22.3 µM (inactive)
same,GI50,HT-29,91 µM (inactive)
same,GI50,KM-20L2,> 100 µM (inactive)
same,GI50,KM12,> 100 µM (inactive)
same,GI50,LOX IMVI,> 100 µM (inactive)
same,GI50,LXFL 529,62.5 µM (inactive)
same,GI50,M14,> 100 µM (inactive)
same,GI50,M19-MEL,> 100 µM (inactive)
same,GI50,Malme-3M,51.3 µM (inactive)
same,GI50,NCI-H226,25.5 µM (inactive)
same,GI50,NCI-H23,> 100 µM (inactive)
same,GI50,NCI-H460,> 100 µM (inactive)
same,GI50,NCI-H522,> 100 µM (inactive)
same,GI50,OVCAR-3,> 100 µM (inactive)
same,GI50,OVCAR-4,> 100 µM (inactive)
same,GI50,OVCAR-5,59.3 µM (inactive)
same,GI50,OVCAR-8,> 100 µM (inactive)
same,GI50,RXF 393,33.9 µM (inactive)
same,GI50,SF-268,34.4 µM (inactive)
same,GI50,SF-295,> 100 µM (inactive)
same,GI50,SF-539,> 100 µM (inactive)
same,GI50,SK-MEL-28,> 100 µM (inactive)
same,GI50,SK-MEL-2,> 100 µM (inactive)
same,GI50,SN12C,79.4 µM (inactive)
same,GI50,SNB-19,> 100 µM (inactive)
same,GI50,SNB-75,21.5 µM (inactive)
same,GI50,SNB-78,> 100 µM (inactive)
same,GI50,SW-620,> 100 µM (inactive)
same,GI50,TK-10,> 100 µM (inactive)
same,GI50,U-251,> 100 µM (inactive)
same,GI50,UACC-257,> 100 µM (inactive)
same,GI50,UO-31,65.9 µM (inactive)
same,GI50,XF498,35.2 µM (inactive)
COc1ccc(C(=O)C(C(=O)C(=O)NC2C3CC4CC(C3)CC2C4)c2ccc(OC)cc2)cc1 (configuration not stated),GI50,786-0,> 100 µM (inactive)
same,GI50,A498,> 100 µM (inactive)
same,GI50,A549,> 100 µM (inactive)
same,GI50,ACHN,> 100 µM (inactive)
same,GI50,CAKI-1,> 100 µM (inactive)
same,GI50,CCRF-CEM,> 100 µM (inactive)
same,GI50,COLO 205,> 100 µM (inactive)
same,GI50,DLD-1,> 100 µM (inactive)
same,GI50,DMS-114,> 100 µM (inactive)
same,GI50,DMS-273,> 100 µM (inactive)
same,GI50,EKVX,> 100 µM (inactive)
same,GI50,HCC 2998,> 100 µM (inactive)
same,GI50,HCT-116,> 100 µM (inactive)
same,GI50,HCT-15,> 100 µM
same,GI50,HL-60,> 100 µM (inactive)
same,GI50,HOP-18,> 100 µM (inactive)
same,GI50,HOP-62,> 100 µM (inactive)
same,GI50,HOP-92,> 100 µM (inactive)
same,GI50,HT-29,> 100 µM (inactive)
same,GI50,IGROV-1,> 100 µM (inactive)
same,GI50,K562,> 100 µM (inactive)
same,GI50,KM-20L2,> 100 µM (inactive)
same,GI50,KM12,> 100 µM (inactive)
same,GI50,LOX IMVI,> 100 µM (inactive)
same,GI50,LXFL 529,> 100 µM (inactive)
same,GI50,M14,> 100 µM (inactive)
same,GI50,M19-MEL,> 100 µM (inactive)
same,GI50,MOLT-4,> 100 µM (inactive)
same,GI50,Malme-3M,> 100 µM (inactive)
same,GI50,NCI-H226,> 100 µM (inactive)
same,GI50,NCI-H23,> 100 µM (inactive)
same,GI50,NCI-H460,> 100 µM (inactive)
same,GI50,NCI-H522,> 100 µM (inactive)
same,GI50,OVCAR-3,> 100 µM (inactive)
same,GI50,OVCAR-4,> 100 µM (inactive)
same,GI50,OVCAR-5,> 100 µM (inactive)
same,GI50,OVCAR-8,> 100 µM (inactive)
same,GI50,RPMI-8226,> 100 µM (inactive)
same,GI50,SF-268,> 100 µM (inactive)
same,GI50,SF-295,> 100 µM (inactive)
same,GI50,SF-539,> 100 µM (inactive)
same,GI50,SK-MEL-28,> 100 µM (inactive)
same,GI50,SK-MEL-2,> 100 µM (inactive)
same,GI50,SK-MEL-5,> 100 µM (inactive)
same,GI50,SK-OV-3,> 100 µM (inactive)
same,GI50,SN12C,> 100 µM (inactive)
same,GI50,SNB-19,> 100 µM (inactive)
same,GI50,SNB-75,16.6 µM (inactive)
same,GI50,SNB-78,> 100 µM (inactive)
same,GI50,SR,> 100 µM (inactive)
same,GI50,SW-620,> 100 µM (inactive)
same,GI50,TK-10,> 100 µM (inactive)
same,GI50,U-251,> 100 µM (inactive)
same,GI50,UACC-257,> 100 µM (inactive)
same,GI50,UACC-62,> 100 µM (inactive)
same,GI50,UO-31,> 100 µM (inactive)
O=C(CCc1ccccc1)CC1OC(=O)C(Cl)=C1Cl (configuration not stated),GI50,786-0,19.1 µM (inactive)
same,GI50,A498,34 µM (inactive)
same,GI50,A549,43.4 µM (inactive)
same,GI50,ACHN,20.5 µM (inactive)
same,GI50,CAKI-1,29.5 µM (inactive)
same,GI50,CCRF-CEM,29.6 µM (inactive)
same,GI50,COLO 205,17.2 µM (inactive)
same,GI50,DLD-1,18 µM (inactive)
same,GI50,DMS-273,22.3 µM (inactive)
same,GI50,EKVX,38.9 µM (inactive)
same,GI50,HCC 2998,18.6 µM (inactive)
same,GI50,HCT-116,14.8 µM (inactive)
same,GI50,HCT-15,16 µM
same,GI50,HOP-18,23.3 µM (inactive)
same,GI50,HOP-62,26.2 µM (inactive)
same,GI50,HOP-92,23.9 µM (inactive)
same,GI50,HT-29,19.2 µM (inactive)
same,GI50,IGROV-1,22.2 µM (inactive)
same,GI50,K562,35 µM (inactive)
same,GI50,KM-20L2,13.2 µM (inactive)
same,GI50,KM12,17.5 µM (inactive)
same,GI50,LOX IMVI,18.6 µM (inactive)
same,GI50,LXFL 529,15.8 µM (inactive)
same,GI50,M14,16.5 µM (inactive)
same,GI50,M19-MEL,17.7 µM (inactive)
same,GI50,MOLT-4,33 µM (inactive)
same,GI50,Malme-3M,18.2 µM (inactive)
same,GI50,NCI-H23,19.1 µM (inactive)
same,GI50,NCI-H460,33.5 µM (inactive)
same,GI50,NCI-H522,14.5 µM (inactive)
same,GI50,OVCAR-3,20.3 µM (inactive)
same,GI50,OVCAR-4,96.4 µM (inactive)
same,GI50,OVCAR-5,20 µM (inactive)
same,GI50,OVCAR-8,20 µM (inactive)
same,GI50,RPMI-8226,32.6 µM (inactive)
same,GI50,RXF 393,29.5 µM (inactive)
same,GI50,SF-268,27.5 µM (inactive)
same,GI50,SF-295,27.4 µM (inactive)
same,GI50,SF-539,31 µM (inactive)
same,GI50,SK-MEL-28,16.9 µM (inactive)
same,GI50,SK-MEL-2,19.1 µM (inactive)
same,GI50,SK-MEL-5,20.8 µM (inactive)
same,GI50,SK-OV-3,45.6 µM (inactive)
same,GI50,SN12C,18.5 µM (inactive)
same,GI50,SNB-19,20.9 µM (inactive)
same,GI50,SNB-75,53.6 µM (inactive)
same,GI50,SNB-78,46.5 µM (inactive)
same,GI50,SR,30.5 µM (inactive)
same,GI50,SW-620,12.1 µM (inactive)
same,GI50,TK-10,33.4 µM (inactive)
same,GI50,U-251,16.4 µM (inactive)
same,GI50,UACC-257,21.3 µM (inactive)
same,GI50,UACC-62,17 µM (inactive)
same,GI50,UO-31,19.3 µM (inactive)
same,GI50,XF498,25.7 µM (inactive)
